Data taken from patent US20260055161A1, “PSCA CAR-T CELLS” (Regeneron Pharmaceuticals, Inc., priority 2018, published 2026).

Tests used:
[1] = tested on: serum cytokines and chemokines (IP-10, TNF-α, MCP-1, MIP-1α, MIP-1β); test: peripheral cytokine profiles over time; type: in vivo, human
Procedure: Cohort 3 (1.25×10^6 cells/kg) was the initial starting cohort for cell dose escalation decisions in Part 1 when PSCA CAR-T cells are administered with rimiducid. Cohorts of 3 subjects were treated with escalating doses of PSCA CAR-T cells on Day 0 with a fixed, single dose of rimiducid (0.4 mg/kg) on Day 7. The doses of PSCA CAR-T cells are detailed in FIG. 8.

cells = test: AP1903 amount needed in vitro for effective signaling of cells; type: cell-based
[2] = healthy volunteers; cited from earlier work
peripheral lymphocytes = settings: 1 patient with increased IL-7 and IL-15 levels after lymphodepletion
Procedure: FIG. 8 provides a table showing patient demographics and clinical characteristics. *Cytoxan 1 g/m^2 by IV infusion on Day −3; † PSCA (copies per 10^6 copies hACTB) was measured at screening.

| SMILES | serum cytokines (IP-10, TNF-α) ([1]; 8 patients that received rimiducid after CAR-T cells) | chemokine levels (MCP-1, MIP-1α, MIP-1β) ([1]; many patients, after rim infusion) | amount needed in vitro for effective signaling of cells (cells) | amount needed for effective signaling, equivalent (cells; MW: 1412 Da) | safety [2] | peripheral lymphocyte count, of the starting level (peripheral lymphocytes) |
| --- | --- | --- | --- | --- | --- | --- |
| CC[C@H](C(=O)N1CCCC[C@H]1C(=O)O[C@H](CCc1ccc(OC)c(OC)c1)c1cccc(OCC(=O)NCCNC(=O)COc2cccc([C@@H](CCc3ccc(OC)c(OC)c3)OC(=O)[C@@H]3CCCCN3C(=O)[C@@H](CC)c3cc(OC)c(OC)c(OC)c3)c2)c1)c1cc(OC)c(OC)c(OC)c1 (relative stereo) [rimiducid, 2-Piperidinecarboxylic acid, 1-[(2S)-1-oxo-2-(3,4,5-trimethoxyphenyl)butyl]-, 1,2-ethanediylbis[imino(2-oxo-2,1-ethanediyl)oxy-3,1-phenylene[(1R)-3-(3,4-dimethoxyphenyl)propylidene]]ester, [2S-[1(R*),2R*[S*[S*[1(R*),2R*]]]]]-(9C1)] | all had elevated cytokines (IP-10, TNF-α) correlated with cell expansion | Increased chemokine levels | 10 to 100 nM | 14 to 140 µg/L | safe | – |
| O=P1(N(CCCl)CCCl)NCCCO1 (stereo not drawn) [cyclophosphamide] | – | – | – | – | – | 31% |
